# Measured values reported in PubChem BioAssay (NCI).
#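 Grown in 96-well plates, cells were treated for 48 hours with each compound at five concentrations. Insufficient inhibition: endpoint recorded as highest concentration tested. Abbreviation: GI50, concentration required for 50% inhibition of growth. Definition used: TGI = concentration required for complete inhibition of growth.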 Where a SMILES comes first, the peptide text is derived from it. [ ]: non-standard residue; d: D form. The star is where a group is joined. ξ: configuration not given here. X16 = COC1=CC(=O)N(C(=O)C(O*)C(C)C)C1Cc1ccccc1; ξNMe2Val = CC(C)C(C(=O)*)N(C)C; NMeV = CN[CH](C(=O)O)C(C)C
# How the values were obtained:
# Assay in all cases: NCI-60 cell line screen, 48 h
# [1] = tested on: A498 renal
# [2] = tested on: EKVX NSCLC
# [3] = tested on: HCT-15 colon
# [4] = tested on: HS 578T breast
# [5] = tested on: KM12 colon
# [6] = tested on: MOLT-4 leukemia
# [7] = tested on: OVCAR-5 ovarian
# [8] = tested on: SK-MEL-28 melanoma
# [9] = tested on: UACC-257 melanoma
# [10] = tested on: K-562 leukemia
SMILES,TGI [1],TGI [2],TGI [3],TGI [4],TGI [5],TGI [6],TGI [7],TGI [8],TGI [9],TGI [10],GI50 [1],GI50 [3],GI50 [5],GI50 [6],GI50 [7]
CC12CC3c4ccccc4CN1C3(c1ccccc1)OC2=O (configuration not stated),> 100 µM,> 100 µM,> 100 µM,> 100 µM,> 100 µM,> 100 µM,> 100 µM,> 100 µM,> 100 µM,,,,,,
Oc1ccc(-c2cc(-c3c(O)cc(O)cc3O)on2)cc1,,> 100 µM,> 100 µM,> 100 µM,> 100 µM,> 100 µM,> 100 µM,> 100 µM,> 100 µM,> 100 µM,,,,,
COC1=CC(=O)N(C(=O)C(OC(=O)C2CCCN2C(=O)C2CCCN2C(=O)C(C(C)C)N(C)C(=O)C(NC(=O)C(C(C)C)N(C)C)C(C)C)C(C)C)C1Cc1ccccc1 (configuration not stated) (ξNMe2Val-V[NMeV]PP-X16; configuration not given here),0.165 µM,3.95 µM,0.431 µM,0.000903 µM,> 4 µM,,> 4 µM,0.00681 µM,,,0.00643 µM,< 0.0004 µM,< 0.0004 µM,< 0.0004 µM,> 4 µM
Cc1c2c(n3c(nc4ccccc43)c1C#N)N(c1ccc(Cl)cc1)CC2,> 100 µM,> 100 µM,> 100 µM,> 100 µM,,,> 100 µM,> 100 µM,> 100 µM,> 100 µM,,,,,
COc1c(C2(c3ccc(F)cc3)SCCCS2)c(=O)c1=O,,> 100 µM,> 100 µM,> 100 µM,> 100 µM,> 100 µM,> 100 µM,> 100 µM,> 100 µM,> 100 µM,,,,,
c1ccc2[nH]c(-c3nc4ccccc4o3)nc2c1,> 100 µM,> 100 µM,> 100 µM,,> 100 µM,> 100 µM,> 100 µM,> 100 µM,> 100 µM,,,,,,
C[N+]1(C)C2Cc3ccccc3C1Cc1ccccc12,> 100 µM,> 100 µM,> 100 µM,> 100 µM,> 100 µM,> 100 µM,> 100 µM,> 100 µM,> 100 µM,,,,,,
C=CCN1C(=O)CS/C1=N\NC(=O)c1c(C)nc2sccn12,,> 100 µM,> 100 µM,,> 100 µM,> 100 µM,> 100 µM,> 100 µM,> 100 µM,> 100 µM,,,,,
CC(C)CN1CN(c2ccccc2)C2(CCN(CC(C)(c3ccc(F)cc3)C3OCCO3)CC2)C1=O (configuration not stated),,19.8 µM,16.6 µM,16.8 µM,15.6 µM,7.32 µM,25.7 µM,10 µM,10.8 µM,18 µM,,,,,
Oc1c(Cl)c2nccnc2c2ccccc12,> 100 µM,> 100 µM,> 100 µM,,> 100 µM,> 100 µM,> 100 µM,> 100 µM,> 100 µM,> 100 µM,,,,,
O=C1CC(NC(=O)C(F)(F)F)c2c(Br)sc(N3CCC(c4ccccc4)CC3)c21 (configuration not stated),> 100 µM,> 100 µM,> 100 µM,79.6 µM,> 100 µM,> 100 µM,> 100 µM,,82.4 µM,> 100 µM,,,,,
N#CI1OC(=O)c2ccccc21,> 100 µM,> 100 µM,> 100 µM,,> 100 µM,> 100 µM,> 100 µM,> 100 µM,> 100 µM,> 100 µM,,,,,
Cc1ccc(OP2(=O)Oc3ccc4ccccc4c3CN2c2ccc(Cl)cc2)cc1C (configuration not stated),> 100 µM,> 100 µM,> 100 µM,,> 100 µM,> 100 µM,> 100 µM,> 100 µM,> 100 µM,> 100 µM,,,,,
c1cnc2c(c1)-n1cccc1C1(CCOCC1)NN2,> 100 µM,> 100 µM,> 100 µM,,> 100 µM,> 100 µM,,> 100 µM,,> 100 µM,,,,,
COC(=O)c1ccc(CN2CCc3c([nH]c4ccccc34)C2CO)o1 (configuration not stated),,> 10 µM,> 10 µM,,> 10 µM,> 10 µM,,> 10 µM,> 10 µM,> 10 µM,,,,,
Cc1ccc(-c2cc(-c3ccco3)nc(N)n2)o1,,> 100 µM,> 100 µM,,> 100 µM,> 100 µM,> 100 µM,> 100 µM,,> 100 µM,,,,,
C1=C2SSC3=CC=C(SSc4ccc(s4)SSC4=CC=C(SSC(=C1)S2)S4)S3,> 100 µM,> 100 µM,> 100 µM,,> 100 µM,> 100 µM,> 100 µM,> 100 µM,> 100 µM,> 100 µM,,,,,
Cc1cc(-c2ccc(C(=O)C(Cl)(Cl)Cl)[nH]2)on1,> 100 µM,> 100 µM,> 100 µM,,24.6 µM,> 100 µM,73 µM,> 100 µM,> 100 µM,> 100 µM,,,,,
Cc1ccc(N=Nc2c(O)c3ccccc3[nH]c2=O)c(S(=O)(=O)N(C)C)c1,> 100 µM,> 100 µM,> 100 µM,> 100 µM,> 100 µM,,> 100 µM,> 100 µM,> 100 µM,> 100 µM,,,,,
CC(C)(C)C1CC[C@H]2c3c([nH]c4ccc(Br)cc34)[C@H]3C(=O)N(c4ccccc4)C(=O)[C@H]3[C@H]2C1 (some centres not stated),,> 100 µM,,,> 100 µM,71.6 µM,> 100 µM,> 100 µM,> 100 µM,> 100 µM,,,,,
C=C/C(C)=C/[C@H](C)C(=O)C[C@H](O)CC1CC(=O)NC(=O)C1,> 100 µM,> 100 µM,> 100 µM,,> 100 µM,> 100 µM,> 100 µM,> 91.8 µM,97.9 µM,> 100 µM,,,,,
O=C1Nc2ccccc2C(=O)OC(Cc2ccccc2)=Nc2ccccc21,,> 100 µM,> 100 µM,,> 100 µM,> 100 µM,> 100 µM,> 100 µM,> 100 µM,> 100 µM,,,,,
C/C(=N\Nc1nc2cc(C)ccc2s1)c1ccccn1,10.6 µM,> 21 µM,30.3 µM,39 µM,12.6 µM,,19.9 µM,12.1 µM,> 100 µM,,,,,,
